Results: US20100160369A1, “S1P1 Agonists and Methods of Making And Using” (EXELIXIS, INC., priority 2008, published 2010)

Key:
S1P1 [1] = target: T1, S1P1 (Homo sapiens, UniProt P21453); test: CNG cAMP Assay (Assay 1); format: cell-based; set-up: host or cells: HEK293 cells expressing the CNG channel; details: read-out: Assay 1 EC50
Procedure, shortened: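 HEK293 cells expressing CNG channel and S1P1, membrane-potential dye loaded; compounds (top 10 μM, 10-point 3-fold, 1.8% DMSO) added with 25 μM Ro 20-1724, 500 nM NECA and 10 nM S1P for 90 min. T90/T0 fluorescence (Ex 350/Em 590 nm) normalised to NECA-alone vs DMSO; EC50 fitted.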
Target sequence in this assay (P21453 whole entry): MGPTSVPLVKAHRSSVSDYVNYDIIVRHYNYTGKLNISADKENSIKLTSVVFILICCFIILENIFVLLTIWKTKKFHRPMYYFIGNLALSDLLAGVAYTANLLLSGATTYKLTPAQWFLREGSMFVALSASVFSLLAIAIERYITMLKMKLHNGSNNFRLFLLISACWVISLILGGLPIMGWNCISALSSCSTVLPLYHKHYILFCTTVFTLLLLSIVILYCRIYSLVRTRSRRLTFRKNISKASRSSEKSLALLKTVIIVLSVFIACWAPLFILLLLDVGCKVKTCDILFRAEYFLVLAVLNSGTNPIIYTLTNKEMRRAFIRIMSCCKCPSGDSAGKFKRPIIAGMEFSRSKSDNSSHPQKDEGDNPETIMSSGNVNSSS

S1P1 [2] = target: T1, S1P1; test: Tango β-arrestin Recruitment Assay in U2OS cells (Assay 2b); format: cell-based; set-up: linker with TEV protease (N1a) cleavage site (C); details: Tango β-arrestin Recruitment Assay
Source text: For the Tango™ β-arrestin recruitment assay, the cytoplasmic C-terminus of S1P1 is tethered to the tTA transcriptional activator with a linker that contains a cleavage site for the N1a protease from tobacco etch virus (TEV protease). The C-terminus of the human β-arrestin2 protein is fused to TEV protease. Binding of an agonist recruits the β-arrestin-TEV fusion protein to the receptor resulting in cleavage of the linker and release of tTA to enter the nucleus and subsequently activate a tTA-dependent luciferase reporter gene.
Alternatively, U2OS cells expressing the reporter gene and S1P1 (Invitrogen) were added to the wells of a 384-well white opaque bottom assay plate (PerkinElmer) at […] per well. The cells were serum starved for 48 h in Freestyle medium (Invitrogen). Test compounds were tested at maximum concentrations of 1 μM for the agonist assay. Compounds were diluted in DMSO (10 concentration points, 3-fold each) and added to the assay plate at a 1% final DMSO concentration. The efficacy control was 1 μM S1P (Avanti). For each compound, there were duplicate assay plates and each assay plate had duplicate wells per concentration point. The plate was incubated overnight at 37° C. The GeneBLAzer β-lactamase assay reagent (Invitrogen) was added and the plates were incubated for an additional 2 h at room temperature. Fluorescence was measured using an EnVision plate reader (PerkinElmer, Waltham, Mass.) at an excitation wavelength of 409 nm and emission wavelengths of 460 nm and 530 nm. The emission intensity at each wavelength was background subtracted against wells containing medium only and the F460 nm/F530 nm ratio determined for each concentration of the test compounds. Percent activity was calculated as [(test compound ratio−DMSO ratio)/(positive control ratio−DMSO ratio)*100], where the positive control and DMSO ratios are from cells incubated with the efficacy control 1 μM S1P and 1% DMSO, respectively. The percent activities were plotted against compound concentration to determine EC50 using XLFit (IDBS).
Assay 1 is the CNG cAMP Assay as described in Biological Example 1. Assay 2a and 2b are the Tango™ β-arrestin Recruitment Assay in HEK293 and U2OS cells, respectively, as described in Biological Example 2. Assay 3a is the hS1P1R GTPγS Binding Assay as described in Biological Example 3. Assay 3b is the GTP-Eu Binding Assay as described in Biological Example 3. EC50's were measured unless otherwise noted. […] In the table, “nt” means the Compound was not tested and “no” means the compound was tested but had no measurable activity under the assay conditions employed.
Target sequence in this assay (P21453 whole entry): as above
Target sequence in this assay (P32121 whole entry partner): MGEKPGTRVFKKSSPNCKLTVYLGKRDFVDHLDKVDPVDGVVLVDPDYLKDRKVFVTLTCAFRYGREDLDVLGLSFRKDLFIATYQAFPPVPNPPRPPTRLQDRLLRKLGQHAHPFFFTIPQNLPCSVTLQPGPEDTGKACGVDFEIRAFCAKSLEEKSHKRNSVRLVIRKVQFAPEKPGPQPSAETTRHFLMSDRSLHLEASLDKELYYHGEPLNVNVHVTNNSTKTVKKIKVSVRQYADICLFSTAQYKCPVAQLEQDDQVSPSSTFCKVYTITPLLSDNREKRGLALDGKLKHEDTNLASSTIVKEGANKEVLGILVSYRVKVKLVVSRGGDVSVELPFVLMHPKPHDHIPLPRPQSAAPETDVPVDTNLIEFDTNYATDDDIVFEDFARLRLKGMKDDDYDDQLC

[3] = footnote 1: Relative EC50 was measured, read-out: Assay 2b relative EC50

| SMILES | EC50 (S1P1 [1]) [nM] | EC50 (S1P1 [2]; read-out: Assay 2b EC50) [nM] | EC50 (S1P1 [2]; [3]) [nM] |
| --- | --- | --- | --- |
| Oc1cc(Cl)c(-c2nnc(-c3cn4cc(C(F)(F)F)cc(Cl)c4n3)s2)cc1Cl [Example 224, 2,5-dichloro-4-{5-[8-chloro-6-(trifluoromethyl)imidazo[1,2-a]pyridin-2-yl]-1,3,4-thiadiazol-2-yl}phenol] | ≤ 100 | 100 to 500 | – |
| CC(Oc1cc(Cl)c(-c2nnc(-c3cn4cc(C(F)(F)F)cc(Cl)c4n3)s2)cc1F)C(=O)O (centres unmarked) [Example 250, 2-[(5-chloro-4-{5-[8-chloro-6-(trifluoromethyl)imidazo[1,2-a]pyridin-2-yl]-1,3,4-thiadiazol-2-yl}-2-fluorophenyl)oxy]propanoic acid] | ≤ 100 | 100 to 500 | – |
| OCC(O)COc1ccc(-c2nnc(-c3cn4cc(C(F)(F)F)cc(Cl)c4n3)s2)c(Cl)c1 (centres unmarked) [Example 245, 3-[(3-chloro-4-{5-[8-chloro-6-(trifluoromethyl)imidazo[1,2-a]pyridin-2-yl]-1,3,4-thiadiazol-2-yl}phenyl)oxy]propane-1,2-diol] | ≤ 100 | 100 to 500 | – |
| CC(N)COc1cc(Cl)c(-c2nnc(-c3cn4cc(C(F)(F)F)ccc4n3)s2)cc1Cl (centres unmarked) [Example 340, 1-[(2,5-dichloro-4-{5-[6-(trifluoromethyl)imidazo[1,2-a]pyridin-2-yl]-1,3,4-thiadiazol-2-yl}phenyl)oxy]propan-2-amine] | – | – | 5000 to 10000 |
| CC(CO)Oc1cc(Cl)c(-c2nnc(-c3cn4cc(C(F)(F)F)cc(Cl)c4n3)s2)cc1Cl (centres unmarked) [Example 251, 2-[(2,5-dichloro-4-{5-[8-chloro-6-(trifluoromethyl)imidazo[1,2-a]pyridin-2-yl]-1,3,4-thiadiazol-2-yl}phenyl)oxy]propan-1-ol] | ≤ 100 | ≤ 100 | – |
| COc1cc(Cl)c(-c2noc(-c3cn4cc(C(F)(F)F)cc(Cl)c4n3)n2)cc1Cl [Example 341] | – | – | 500 to 1000 |
| O=C(O)C1CC1c1cc(Cl)c(-c2noc(-c3cn4cc(C(F)(F)F)cc(Cl)c4n3)n2)cc1Cl (centres unmarked) [Example 211, 2-(2,5-dichloro-4-{5-[8-chloro-6-(trifluoromethyl)imidazo[1,2-a]pyridin-2-yl]-1,2,4-oxadiazol-3-yl}phenyl)cyclopropanecarboxylic acid] | – | ≤ 100 | – |
| OCC(CO)NCCOc1cc(Cl)c(-c2noc(-c3cn4cc(C(F)(F)F)cc(Cl)c4n3)n2)cc1Cl [Entry 65] | – | ≤ 100 | – |
| CC(O)CNc1cc(Cl)c(-c2noc(-c3cn4cc(C(F)(F)F)cc(Cl)c4n3)n2)cc1Cl (centres unmarked) [Example 323, 1-[(2,5-dichloro-4-{5-[8-chloro-6-(trifluoromethyl)imidazo[1,2-a]pyridin-2-yl]-1,2,4-oxadiazol-3-yl}phenyl)amino]propan-2-ol] | – | ≤ 100 | – |
| N[C@H](CO)COc1cc(Cl)c(-c2nnc(-c3cn4cc(C(F)(F)F)ccc4n3)s2)cc1F [Entry 43] | – | ≤ 100 | – |
| O=C(O)C1CC1c1cc(Cl)c(-c2nc(-c3cn4cc(C(F)(F)F)cc(Cl)c4n3)no2)cc1Cl (centres unmarked) [Example 299, 2-(2,5-dichloro-4-{3-[8-chloro-6-(trifluoromethyl)imidazo[1,2-a]pyridin-2-yl]-1,2,4-oxadiazol-5-yl}phenyl)cyclopropanecarboxylic acid] | – | 100 to 500 | – |

Continued, values first:

| EC50 (S1P1 [1]) [nM] | EC50 (S1P1 [2]; read-out: Assay 2b EC50) [nM] | EC50 (S1P1 [2]; [3]) [nM] | SMILES |
| --- | --- | --- | --- |
| ≤ 100 | ≤ 100 | – | CC(CO)Oc1cc(Cl)c(-c2nc(-c3cn4cc(C(F)(F)F)cc(Cl)c4n3)no2)cc1Cl (centres unmarked) [Example 227, 2-[(2,5-dichloro-4-{3-[8-chloro-6-(trifluoromethyl)imidazo[1,2-a]pyridin-2-yl]-1,2,4-oxadiazol-5-yl}phenyl)oxy]propan-1-ol] |
| – | ≤ 100 | – | C[C@@H](COc1cc(Cl)c(-c2noc(-c3cn4cc(C(F)(F)F)cc(Br)c4n3)n2)cc1Cl)OP(=O)(O)O [Example 325, (1S)-2-[(4-{5-[8-bromo-6-(trifluoromethyl)imidazo[1,2-a]pyridin-2-yl]-1,2,4-oxadiazol-3-yl}-2,5-dichlorophenyl)oxy]-1-methylethyl dihydrogen phosphate] |
| – | ≤ 100 | – | O=P(O)(O)OCC(O)COc1cc(Cl)c(-c2noc(-c3cn4cc(C(F)(F)F)cc(Cl)c4n3)n2)cc1Cl (centres unmarked) [Entry 53] |
| – | ≤ 100 | – | CC(=O)COc1cc(Cl)c(-c2noc(-c3cn4cc(C(F)(F)F)cc(Br)c4n3)n2)cc1Cl [Example 305, 1-[(4-{5-[8-bromo-6-(trifluoromethyl)imidazo[1,2-a]pyridin-2-yl]-1,2,4-oxadiazol-3-yl}-2,5-dichlorophenyl)oxy]propan-2-one] |
| – | ≤ 100 | – | OCC(O)CNc1cc(Cl)c(-c2noc(-c3cn4cc(C(F)(F)F)cc(Cl)c4n3)n2)cc1Cl (centres unmarked) [Entry 29] |
| – | ≤ 100 | – | O=P(O)(O)COc1cc(Cl)c(-c2noc(-c3cn4cc(C(F)(F)F)cc(Cl)c4n3)n2)cc1Cl [Entry 52] |
| – | ≤ 100 | – | N[C@@H](CO)COc1cc(Cl)c(-c2nnc(-c3cn4cc(C(F)(F)F)ccc4n3)s2)cc1F [Example 309, (2S)-2-amino-3-[(5-chloro-2-fluoro-4-{5-[6-(trifluoromethyl)imidazo[1,2-a]pyridin-2-yl]-1,3,4-thiadiazol-2-yl}phenyl)oxy]propan-1-ol] |
| – | ≤ 100 | – | CS(=O)(=O)NCc1ccc(-c2nnc(-c3cn4cc(C(F)(F)F)cc(Cl)c4n3)s2)c(Cl)c1 [Example 332, N-[(3-chloro-4-{5-[8-chloro-6-(trifluoromethyl)imidazo[1,2-a]pyridin-2-yl]-1,3,4-thiadiazol-2-yl}phenyl)methyl]methanesulfonamide] |
| – | ≤ 100 | – | Cc1cc(CCC(=O)O)c(Cl)cc1-c1nc(-c2cn3cc(C(F)(F)F)cc(Cl)c3n2)no1 [Example 329, 3-(2-chloro-4-{3-[8-chloro-6-(trifluoromethyl)imidazo[1,2-a]pyridin-2-yl]-1,2,4-oxadiazol-5-yl}-5-methylphenyl)propanoic acid] |
| – | ≤ 100 | – | CC(CCc1cc(Cl)c(-c2noc(-c3cn4cc(C(F)(F)F)cc(Cl)c4n3)n2)cc1Cl)OP(=O)(O)O (centres unmarked) [Example 221, 3-(2,5-dichloro-4-{5-[8-chloro-6-(trifluoromethyl)imidazo[1,2-a]pyridin-2-yl]-1,2,4-oxadiazol-3-yl}phenyl)-1-methylpropyl dihydrogen phosphate] |
| – | ≤ 100 | – | COc1ccc2nc(-c3nnc(-c4cc(F)c(OCC(N)CO)cc4Cl)s3)cn2c1 (centres unmarked) [Entry 45] |
| – | ≤ 100 | – | OCC(CO)Oc1cc(Cl)c(-c2noc(-c3cn4cc(C(F)(F)F)cc(Cl)c4n3)n2)cc1Cl [Example 307, 2-[(2,5-dichloro-4-{5-[8-chloro-6-(trifluoromethyl)imidazo[1,2-a]pyridin-2-yl]-1,2,4-oxadiazol-3-yl}phenyl)oxy]propane-1,3-diol] |
| – | ≤ 100 | – | CC(O)CCc1cc(Cl)c(-c2noc(-c3cn4cc(C(F)(F)F)cc(Cl)c4n3)n2)cc1Cl (centres unmarked) [Example 185, 4-(2,5-dichloro-4-{5-[8-chloro-6-(trifluoromethyl)imidazo[1,2-a]pyridin-2-yl]-1,2,4-oxadiazol-3-yl}phenyl)butan-2-ol] |
